Test results from patent US12209102B2, “Heterocyclic compounds and uses thereof” (Kumquat Biosciences Inc., priority 2022, dated 2025).

Columns and labels:
K-Ras WT = target: T1, K-Ras WT (Homo sapiens, UniProt P01116); experiment: HTRF resonance energy transfer assay, K-Ras WT / SOS1 interaction; type: biochemical; conditions: HTRF assay of Example 5; read-out: IC50 against K-Ras WT
T1 construct: made in house; host or cells: E. coli BL21 (DE3)
Summary of the method: (§1)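 Compounds, tested in duplicate at 10 μM down to 0.01 μM, were read after about 10 min or more by HTRF as the 665/620 nm emission ratio (337 nm excitation) to derive IC50. This ratio reports FRET between an anti-GST-Eu donor on GST-K-Ras (wild-type or mutant) and an anti-6His-XL665 acceptor on His-hSOS1. Buffer: ~5 mM HEPES pH 7.4, 150 mM NaCl, 1 mM DTT, 0.05% BSA, 0.0025% Igepal.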

K-Ras G12S = target: T2, K-Ras G12S (Homo sapiens, UniProt P01116, G12S); experiment: HTRF resonance energy transfer assay, K-Ras G12S / SOS1 interaction; type: biochemical; conditions: HTRF assay of Example 5; read-out: IC50 against K-Ras G12S
T2 construct: made in house; host or cells: E. coli BL21 (DE3)
Summary of the method: as §1

K-Ras G12D = target: T3, K-Ras G12D (Homo sapiens, UniProt P01116, G12D); experiment: HTRF resonance energy transfer assay, K-Ras G12D / SOS1 interaction; type: biochemical; conditions: HTRF assay of Example 5; read-out: IC50 against K-Ras G12D
T3 construct: made in house; host or cells: E. coli BL21 (DE3)
Summary of the method: as §1

K-Ras G12V = target: T4, K-Ras G12V (Homo sapiens, UniProt P01116, G12V); experiment: HTRF resonance energy transfer assay, K-Ras G12V / SOS1 interaction; type: biochemical; conditions: HTRF assay of Example 5; read-out: IC50 against K-Ras G12V
T4 construct: made in house; host or cells: E. coli BL21 (DE3)
Summary of the method: as §1

GP2D cells = experiment: Ras cellular assay, growth of cells with K-Ras G12D mutation (CellTiter-Glo); type: cell-based; conditions: cell growth, Example 9, G12D mutation, read-out: IC50 against GP2D cells
A549 cells = experiment: Ras cellular assay, growth of cells with K-Ras G12S mutation (CellTiter-Glo); type: cell-based; conditions: Homo sapiens, cell growth, Example 9, G12S mutation, read-out: IC50 against A549 cells
Summary of the method: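 Growth inhibition IC50 values come from four-parameter fits of CellTiter-Glo luminescence, read about 6 days after compound addition. G12S-mutant A549 cells (e.g. 800/well, RPMI-1640 + 10% heat-inactivated FBS) were plated in tissue-culture-treated or ultra-low-attachment 384-well format. Dosing began the following day with serial dilutions, e.g. 10 points, 3-fold.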

SW620 cells = experiment: Ras cellular assay, growth of cells with K-Ras G12V mutation (CellTiter-Glo); type: cell-based; conditions: Homo sapiens, SW-620; cell growth, Example 9, G12V mutation; read-out: IC50 against SW620 cells
Summary of the method: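 IC50 values came from a four-parameter fit of CellTiter-Glo viability, read roughly 6 days after dosing with e.g. a 10-point threefold dilution series. G12V-mutant SW620 cells (e.g. 800 per well) had been plated the previous day in RPMI-1640/10% heat-inactivated FBS, on tissue culture-treated or ultra-low attachment plates.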

T2 sequence (P01116 1-188 isoform P01116-2 G12S): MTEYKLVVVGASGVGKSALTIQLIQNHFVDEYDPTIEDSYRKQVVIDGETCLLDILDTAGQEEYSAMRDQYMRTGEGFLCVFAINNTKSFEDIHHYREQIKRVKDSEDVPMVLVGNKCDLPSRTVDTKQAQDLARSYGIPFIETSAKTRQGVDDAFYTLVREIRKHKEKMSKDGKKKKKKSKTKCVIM
T3 sequence (P01116 1-188 isoform P01116-2 G12D): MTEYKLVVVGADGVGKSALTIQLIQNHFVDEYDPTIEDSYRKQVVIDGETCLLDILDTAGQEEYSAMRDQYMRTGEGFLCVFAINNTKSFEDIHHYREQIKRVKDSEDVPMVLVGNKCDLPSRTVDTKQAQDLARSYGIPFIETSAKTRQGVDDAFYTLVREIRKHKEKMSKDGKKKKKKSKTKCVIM
T1 sequence (P01116 1-188 isoform P01116-2): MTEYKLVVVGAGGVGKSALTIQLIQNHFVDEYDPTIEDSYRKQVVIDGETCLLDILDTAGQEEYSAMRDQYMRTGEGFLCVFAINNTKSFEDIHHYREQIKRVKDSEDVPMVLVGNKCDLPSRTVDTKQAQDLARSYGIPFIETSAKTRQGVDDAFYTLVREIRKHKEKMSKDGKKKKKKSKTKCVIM
T4 sequence (P01116 1-188 isoform P01116-2 G12V): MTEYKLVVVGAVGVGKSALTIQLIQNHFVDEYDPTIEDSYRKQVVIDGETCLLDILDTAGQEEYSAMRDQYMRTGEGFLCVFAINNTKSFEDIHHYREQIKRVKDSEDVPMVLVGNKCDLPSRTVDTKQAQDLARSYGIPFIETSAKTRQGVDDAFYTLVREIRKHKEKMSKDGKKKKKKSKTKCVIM

SMILES	IC50 (K-Ras WT)	IC50 (K-Ras G12S)	IC50 (K-Ras G12D)	IC50 (K-Ras G12V)	IC50 (A549 cells)	IC50 (SW620 cells)	IC50 (GP2D cells)
CC(O)C1COc2c(Cl)c(-c3ccc(F)c4sc(N)c(C#N)c34)c(F)c3nc(OC[C@@]45CCCN4C[C@H](F)C5)nc(c23)N1CC(F)F (single isomer, unassigned) [Compound 899]	< 100 nM	< 100 nM	< 100 nM	< 100 nM	< 5000 nM	< 5000 nM	< 500 nM
CN(CCN1CCOc2c(Cl)c(-c3ccc(F)c4sc(N)c(C#N)c34)c(F)c3nc(OC[C@@]45CCCN4C[C@H](F)C5)nc1c23)C(=O)[C@@H]1N[C@H]1C1CC1 [Compound 613, (2R,3S)-N-(2-(9-(2-amino-3-cyano-7-fluorobenzo[b]thiophen-4-yl)-8-chloro-10-fluoro-2-(((2R,7aS)-2-fluorotetrahydro-1H-pyrrolizin-7a(5H)-yl)methoxy)-5,6-dihydro-4H-[1,4]oxazepino[5,6,7-de]quinazolin-4-yl)ethyl)-3-cyclopropyl-N-methylaziridine-2-carboxamide]	< 100 nM	< 100 nM	< 100 nM	< 100 nM	< 5000 nM	< 5000 nM	< 500 nM
N#Cc1c(N)sc2c(F)ccc(-c3c(Cl)c4c5c(nc(OC[C@@]67CCCN6C[C@H](F)C7)nc5c3F)N(C35COC(CF)(C3)C5)CCO4)c12 [Compound 972, 2-amino-4-(8-chloro-10-fluoro-4-(1-(fluoromethyl)-2-oxabicyclo[2.1.1]hexan-4-yl)-2-(((2R,7aS)-2-fluorotetrahydro-1H-pyrrolizin-7a(5H)-yl)methoxy)-5,6-dihydro-4H-[1,4]oxazepino[5,6,7-de]quinazolin-9-yl)-7-fluorobenzo[b]thiophene-3-carbonitrile]	< 100 nM	< 100 nM	< 100 nM	< 100 nM	< 5000 nM	< 5000 nM	< 500 nM
C[C@@H]1CN(CC(F)F)c2nc(OC[C@@]34CCCN3C[C@H](F)C4)nc3c(F)c(-c4ccc(F)c5sc(N)c(C#N)c45)c(Cl)c(c23)O1 [Compound 1133, 2-amino-4-((6R)-8-chloro-4-(2,2-difluoroethyl)-10-fluoro-2-(((2R,7aS)-2-fluorotetrahydro-1H-pyrrolizin-7a(5H)-yl)methoxy)-6-methyl-5,6-dihydro-4H-[1,4]oxazepino[5,6,7-de]quinazolin-9-yl)-7-fluorobenzo[b]thiophene-3-carbonitrile]	< 100 nM	< 100 nM	< 100 nM	< 100 nM	< 5000 nM	< 5000 nM	< 500 nM
COCCN1CCOc2c(Cl)c(-c3ccc(F)c4sc(N)c(C#N)c34)c(F)c3nc(OC[C@@]45CCCN4C[C@H](F)C5)nc1c23 [Compound 1061, 2-amino-4-(8-chloro-10-fluoro-2-(((2R,7aS)-2-fluorotetrahydro-1H-pyrrolizin-7a(5H)-yl)methoxy)-4-(2-methoxyethyl)-5,6-dihydro-4H-[1,4]oxazepino[5,6,7-de]quinazolin-9-yl)-7-fluorobenzo[b]thiophene-3-carbonitrile]	< 100 nM	< 100 nM	< 100 nM	< 100 nM	< 5000 nM	< 5000 nM	< 500 nM
CN(C)C1(CN2CCOc3c(Cl)c(-c4ccc(F)c5sc(N)c(C#N)c45)c(F)c4nc(OC[C@@]56CCCN5C[C@H](F)C6)nc2c34)CCCC1 [Compound 1062, 2-amino-4-(8-chloro-4-((1-(dimethylamino)cyclopentyl)methyl)-10-fluoro-2-(((2R,7aS)-2-fluorotetrahydro-1H-pyrrolizin-7a(5H)-yl)methoxy)-5,6-dihydro-4H-[1,4]oxazepino[5,6,7-de]quinazolin-9-yl)-7-fluorobenzo[b]thiophene-3-carbonitrile]	< 100 nM	< 100 nM	< 100 nM	< 100 nM	< 5000 nM	< 5000 nM	< 500 nM

Now from value to compound, other results behind:

IC50 (K-Ras WT)	IC50 (K-Ras G12S)	IC50 (K-Ras G12D)	IC50 (K-Ras G12V)	IC50 (A549 cells)	IC50 (SW620 cells)	SMILES	IC50 (GP2D cells)
< 100 nM	< 100 nM	< 100 nM	< 100 nM	< 5000 nM	< 5000 nM	N#Cc1c(N)sc2c(F)ccc(-c3c(Cl)c4c5c(nc(OC[C@@]67CCCN6C[C@H](F)C7)nc5c3F)N(C3CC5(CCN(C=O)C5)C3)CCO4)c12 (stereo partly drawn) [Compound 698, 2-amino-4-(8-chloro-10-fluoro-2-(((2R,7aS)-2-fluorotetrahydro-1H-pyrrolizin-7a(5H)-yl)methoxy)-4-(6-formyl-6-azaspiro[3.4]octan-2-yl)-5,6-dihydro-4H-[1,4]oxazepino[5,6,7-de]quinazolin-9-yl)-7-fluorobenzo[b]thiophene-3-carbonitrile]	< 500 nM
< 100 nM	< 100 nM	< 100 nM	< 100 nM	< 5000 nM	< 5000 nM	COC1CC(C(=O)N2CCC(N3CCOc4c(Cl)c(-c5ccc(F)c6sc(N)c(C#N)c56)c(F)c5nc(OC[C@@]67CCCN6C[C@H](F)C7)nc3c45)C2)C1 (stereo partly drawn) [Compound 881, 2-amino-4-(8-chloro-10-fluoro-2-(((2R,7aS)-2-fluorotetrahydro-1H-pyrrolizin-7a(5H)-yl)methoxy)-4-(1-(3-methoxycyclobutane-1-carbonyl)pyrrolidin-3-yl)-5,6-dihydro-4H-[1,4]oxazepino[5,6,7-de]quinazolin-9-yl)-7-fluorobenzo[b]thiophene-3-carbonitrile]	< 500 nM
< 100 nM	< 100 nM	< 100 nM	< 100 nM	< 5000 nM	< 5000 nM	N#Cc1c(N)sc2c(F)ccc(-c3c(Cl)c4c5c(nc(OC[C@@]67CCCN6C[C@H](F)C7)nc5c3F)N(C3CCN(C(=O)CC5CCOCC5)C3)CCO4)c12 (stereo partly drawn) [Compound 869, 2-amino-4-(8-chloro-10-fluoro-2-(((2R,7aS)-2-fluorotetrahydro-1H-pyrrolizin-7a(5H)-yl)methoxy)-4-(1-(2-(tetrahydro-2H-pyran-4-yl)acetyl)pyrrolidin-3-yl)-5,6-dihydro-4H-[1,4]oxazepino[5,6,7-de]quinazolin-9-yl)-7-fluorobenzo[b]thiophene-3-carbonitrile]	< 500 nM
< 100 nM	< 100 nM	< 100 nM	< 100 nM	< 5000 nM	< 5000 nM	N#Cc1c(N)sc2c(F)ccc(-c3c(Cl)c4c5c(nc(OC[C@@]67CCCN6C[C@H](F)C7)nc5c3F)N(C3CCN(C(=O)C[C@H]5CCCO5)C3)CCO4)c12 (stereo partly drawn) [Compound 1024, 2-amino-4-(8-chloro-10-fluoro-2-(((2R,7aS)-2-fluorotetrahydro-1H-pyrrolizin-7a(5H)-yl)methoxy)-4-(1-(2-((R)-tetrahydrofuran-2-yl)acetyl)pyrrolidin-3-yl)-5,6-dihydro-4H-[1,4]oxazepino[5,6,7-de]quinazolin-9-yl)-7-fluorobenzo[b]thiophene-3-carbonitrile]	< 500 nM
< 100 nM	< 100 nM	< 100 nM	< 100 nM	< 5000 nM	< 5000 nM	N#Cc1c(N)sc2c(F)ccc(-c3c(Cl)c4c5c(nc(OC[C@@]67CCCN6C[C@H](F)C7)nc5c3F)N(C3CCN(C(=O)C5COC5)C3)CCO4)c12 (stereo partly drawn) [Compound 757, 2-amino-4-(8-chloro-10-fluoro-2-(((2R,7aS)-2-fluorotetrahydro-1H-pyrrolizin-7a(5H)-yl)methoxy)-4-(1-(oxetane-3-carbonyl)pyrrolidin-3-yl)-5,6-dihydro-4H-[1,4]oxazepino[5,6,7-de]quinazolin-9-yl)-7-fluorobenzo[b]thiophene-3-carbonitrile]	< 500 nM
< 100 nM	< 100 nM	< 100 nM	< 100 nM	< 5000 nM	< 5000 nM	CC1COc2c(Cl)c(-c3ccc(F)c4sc(N)c(C#N)c34)c(F)c3nc(OC[C@@]45CCCN4C[C@H](F)C5)nc(c23)N1[C@@H]1CCOC1 (stereo partly drawn) [Compound 888, 2-amino-4-(8-chloro-10-fluoro-2-(((2R,7aS)-2-fluorotetrahydro-1H-pyrrolizin-7a(5H)-yl)methoxy)-5-methyl-4-((R)-tetrahydrofuran-3-yl)-5,6-dihydro-4H-[1,4]oxazepino[5,6,7-de]quinazolin-9-yl)-7-fluorobenzo[b]thiophene-3-carbonitrile]	< 500 nM
